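Cells were grown in 96-well plates and exposed to each compound for 48 hours at five concentrations; endpoints were interpolated linearly between bracketing concentrations, or set to the highest concentration if not reached. Here, GI50 denotes the concentration required for 50% inhibition of growth.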 Activity calls are given as the source filed them. Rule as the data show it: active = GI50 up to about 1.1 µM and inactive = higher.
Columns and labels:
Test in all cases: inhibition of tumour cell growth, NCI panel, 48 h
[1] = test system: 786-0
[2] = test system: A498
[3] = test system: A549
[4] = test system: COLO 205
[5] = test system: HT-29
[6] = test system: K562
[7] = test system: KM12
[8] = test system: M14
[9] = test system: MOLT-4
[10] = test system: NCI-H226
[11] = test system: NCI-H460
[12] = test system: OVCAR-8
[13] = test system: RPMI-8226
[14] = test system: SF-295
[15] = test system: SF-539
[16] = test system: SK-OV-3
[17] = test system: SN12C
[18] = test system: SW-620
[19] = test system: NCI/ADR-RES

Measured: GI50

O=C(O)CN(c1ccc(Cl)cc1)S(=O)(=O)c1ccccc1
inactive: [1] > 100 µM | [2] > 100 µM | [3] > 100 µM | [4] 51.2 µM | [5] > 100 µM | [6] > 100 µM | [7] > 100 µM | [8] > 100 µM | [9] > 100 µM | [10] > 100 µM | [11] > 100 µM | [12] > 100 µM | [13] > 100 µM | [14] > 100 µM | [15] > 100 µM | [16] > 100 µM | [17] > 100 µM | [18] > 100 µM

COc1ccc(C(O)c2nccn2C)c(OC)c1 (stereo not given)
inactive: [1] > 100 µM | [3] > 100 µM | [4] > 100 µM | [5] > 100 µM | [6] > 100 µM | [7] > 100 µM | [8] > 100 µM | [9] > 100 µM | [10] > 100 µM | [11] > 100 µM | [19] > 100 µM | [12] > 100 µM | [13] > 100 µM | [14] > 100 µM | [15] > 100 µM | [16] 17.4 µM | [17] > 100 µM | [18] > 100 µM

CC1=NN(C(=O)Cc2ccccc2)C(=O)/C1=C\c1ccc(O)cc1
inactive: [1] > 100 µM | [2] > 100 µM | [3] > 100 µM | [4] > 100 µM | [5] > 100 µM | [6] > 100 µM | [7] > 100 µM | [8] > 100 µM | [9] > 100 µM | [10] > 100 µM | [11] > 100 µM | [12] > 100 µM | [13] > 100 µM | [14] > 100 µM | [15] > 100 µM | [16] > 100 µM | [17] > 100 µM | [18] > 100 µM

COc1ccc2nc3n(c2c1)C(c1c(F)cccc1Cl)SC3 (stereo not given)
inactive: [1] > 100 µM | [2] > 100 µM | [3] > 100 µM | [4] > 100 µM | [6] > 100 µM | [7] > 100 µM | [8] > 100 µM | [9] > 100 µM | [11] > 100 µM | [19] 23.3 µM | [12] 46.8 µM | [13] > 100 µM | [14] > 100 µM | [16] > 100 µM | [17] > 100 µM | [18] > 100 µM

CC1=C(C(=O)Nc2cccc(C(F)(F)F)c2)C(c2ccccc2F)C(C(=O)Nc2cccc(C(F)(F)F)c2)=C(C)N1
inactive: [1] 6.49 µM | [2] 9.16 µM | [3] 4.58 µM | [4] 4.82 µM | [5] 3.66 µM | [6] 3.96 µM | [7] 3.74 µM | [8] 4.59 µM | [9] 2.6 µM | [10] 4.38 µM | [11] 4.23 µM | [12] 9.62 µM | [13] 2.58 µM | [14] 6.52 µM | [15] 8.75 µM | [16] 10.4 µM | [17] 7.96 µM | [18] 7.08 µM

CC1=C(C(=O)Nc2ccc([N+](=O)[O-])cc2)C(c2ccc(N(C)C)cc2)C(C(=O)Nc2ccc([N+](=O)[O-])cc2)=C(C)N1
inactive: [1] 23.3 µM | [2] 20.7 µM | [3] 21.2 µM | [4] 15.4 µM | [5] 23.4 µM | [6] 6.68 µM | [7] 11.6 µM | [8] 16.9 µM | [9] 9.14 µM | [10] 17.6 µM | [11] 17.4 µM | [12] 26.6 µM | [13] 12.2 µM | [14] 27.5 µM | [15] 23 µM | [16] 23.4 µM | [17] > 10 µM | [18] 23.9 µM

NNC(=S)N/N=C(\c1nc2ccc(Cl)cc2nc1O)C(O)c1ccc(Cl)cc1Cl (stereo not given)
inactive: [1] > 100 µM | [2] > 100 µM | [3] > 100 µM | [4] > 100 µM | [5] > 100 µM | [6] > 100 µM | [7] > 100 µM | [8] > 100 µM | [9] > 100 µM | [10] > 100 µM | [11] > 100 µM | [12] > 100 µM | [13] > 100 µM | [14] > 100 µM | [15] > 100 µM | [16] > 100 µM | [17] > 100 µM | [18] > 100 µM

O=c1cc(CSc2c(-c3ccccc3)c(=O)n(-c3ccccc3)c(=S)n2-c2ccccc2)[nH]c(=O)[nH]1
inactive: [1] > 100 µM | [2] > 100 µM | [3] > 100 µM | [4] > 100 µM | [5] > 100 µM | [6] > 100 µM | [7] > 100 µM | [8] > 100 µM | [9] > 100 µM | [11] > 100 µM | [19] > 100 µM | [12] > 100 µM | [13] > 100 µM | [15] > 100 µM | [16] > 100 µM | [17] > 100 µM | [18] > 100 µM

CCc1cccc(CC)c1NC(=O)/C(Cl)=C(/Cl)C(=O)O
inactive: [1] > 42.1 µM | [2] > 100 µM | [3] > 69.5 µM | [4] 13.9 µM | [5] 35 µM | [6] 11.6 µM | [7] > 100 µM | [8] 17.1 µM | [9] 9.25 µM | [10] > 100 µM | [11] > 100 µM | [12] 18.4 µM | [13] 32.1 µM | [14] > 100 µM | [15] 33 µM | [16] > 100 µM | [17] 31.1 µM | [18] 21.2 µM

COC(=O)C1=C(c2cc(OC)c(OC)c(OC)c2)OC(c2cc(OC)c(OC)c(OC)c2)C1COC(C)=O (stereo not given)
inactive: [1] 26.1 µM | [2] 51.5 µM | [3] 51.4 µM | [4] 18.2 µM | [5] 35.5 µM | [6] 24 µM | [7] 51.8 µM | [8] 41 µM | [9] 20.8 µM | [10] 46.1 µM | [11] 36.6 µM | [12] 59.7 µM | [13] 29.1 µM | [14] 45.2 µM | [15] > 100 µM | [16] 44.8 µM | [17] 85.1 µM | [18] 87.5 µM

COC(=O)C1C(O)CC(c2ccccn2)N(Cc2ccccc2)C1c1ccccn1 (stereo not given)
inactive: [1] > 100 µM | [2] > 100 µM | [3] > 100 µM | [4] > 100 µM | [5] > 100 µM | [6] 44.4 µM | [7] > 100 µM | [8] > 100 µM | [9] 37.6 µM | [10] > 100 µM | [11] > 100 µM | [12] > 100 µM | [13] 23.4 µM | [14] > 100 µM | [15] > 100 µM | [16] > 100 µM | [17] > 100 µM | [18] > 100 µM

Source: ChEMBL document CHEMBL1201862, “PubChem BioAssay data set” (2004)
